Measured values reported in ChEMBL document CHEMBL1136452, “Influence of ethylene-oxy spacer group on the activity of linezolid: synthesis of potent antibacterials possessing a thiocarbonyl group” (2003).
Converted amounts (≈) assume the structure as drawn.

Experiments:
Format in all cases: functional
Enterococcus faecalis [1] = assay: In vitro antibacterial activity against vancomycin-susceptible E. f. 034 (Enterococcus faecalis ATCC 29212)
Enterococcus faecalis [2] = assay: In vitro antibacterial activity against vancomycin-susceptible E. f. 153 (Enterococcus faecalis ATCC 29212)
Enterococcus faecium [3] = assay: In vitro antibacterial activity against vancomycin-resistant Enterococcus faecium 154 (Enterococcus faecium ATCC 12202)
Staphylococcus aureus [4] = assay: In vitro antibacterial activity against methicillin-resistant S. a. 019 (Staphylococcus aureus ATCC 33591 )
Staphylococcus aureus [5] = assay: In vitro antibacterial activity against S. a. 213 (Staphylococcus. aureus ATCC 49951)
Staphylococcus aureus [6] = assay: In vitro antibacterial activity against S. a. 035 (Staphylococcus aureus ATCC 29213)
Enterococcus faecium [7] = assay: In vitro antibacterial activityd against vancomycin-resistant Enterococcus faecium 154 (Enterococcus faecium ATCC 12202)
Staphylococcus aureus [8] = assay: In vitro antibacterial activityd against methicillin-resistant S. a. 019 (Staphylococcus aureus ATCC 33591 )
Staphylococcus aureus [9] = assay: In vitro minimum inhibitory concentration of compound against S. a. 035 (Staphylococcus aureus ATCC 29213)

Molecule CO/C(S)=N/NC[C@H]1CN(c2ccc(OCCN3CCOCC3)c(F)c2)C(=O)O1 has an MIC (Enterococcus faecalis [1]) of 2 µg/mL (≈ 4.67 µM), an MIC (Enterococcus faecalis [2]) of 4 µg/mL (≈ 9.34 µM) and an MIC (Enterococcus faecium [3]) of 2 µg/mL (≈ 4.67 µM). The MIC (Staphylococcus aureus [4]) was 2 µg/mL (≈ 4.67 µM), the MIC (Staphylococcus aureus [5]) was 4 µg/mL (≈ 9.34 µM) and the MIC (Staphylococcus aureus [6]) was 4 µg/mL (≈ 9.34 µM).

In the case of CC(=O)NNC[C@H]1CN(c2ccc(OCCN3CCSCC3)c(F)c2)C(=O)O1, the MIC (Enterococcus faecalis [1]) is reported as 16 µg/mL (≈ 38.8 µM), the MIC (Enterococcus faecalis [2]) is reported as 16 µg/mL (≈ 38.8 µM) and the MIC (Enterococcus faecium [3]) is reported as 4 µg/mL (≈ 9.7 µM). For the same molecule, the MIC (Staphylococcus aureus [4]) was 4 µg/mL (≈ 9.7 µM), the MIC (Staphylococcus aureus [5]) was 16 µg/mL (≈ 38.8 µM) and the MIC (Staphylococcus aureus [6]) was 16 µg/mL (≈ 38.8 µM).

CC(=O)NNC[C@H]1CN(c2ccc(OCCN3CCCCC3)cc2)C(=O)O1 was tested, and the MIC (Enterococcus faecalis [1]) was greater than 32 µg/mL, the MIC (Enterococcus faecalis [2]) was greater than 32 µg/mL and the MIC (Enterococcus faecium [3]) was greater than 32 µg/mL. The MIC (Staphylococcus aureus [4]) was greater than 32 µg/mL and the MIC (Staphylococcus aureus [6]) was greater than 32 µg/mL.

For CC(=O)NNC[C@H]1CN(c2ccc(OCCN3CCCC3)cc2)C(=O)O1, the MIC (Enterococcus faecalis [1]) was greater than 32 µg/mL, the MIC (Enterococcus faecalis [2]) was greater than 32 µg/mL and the MIC (Enterococcus faecium [3]) was greater than 32 µg/mL. It also gave an MIC (Staphylococcus aureus [4]) of 32 µg/mL (≈ 88.3 µM) and an MIC (Staphylococcus aureus [6]) greater than 32 µg/mL.

With CC(=O)NNC[C@H]1CN(c2ccc(OCCO)c(F)c2)C(=O)O1 the MIC (Enterococcus faecalis [1]) was 16 µg/mL (≈ 48.9 µM), the MIC (Enterococcus faecalis [2]) was 16 µg/mL (≈ 48.9 µM) and the MIC (Staphylococcus aureus [6]) was 8 µg/mL (≈ 24.4 µM). It also gave an MIC (Enterococcus faecium [7]) of 16 µg/mL (≈ 48.9 µM) and an MIC (Staphylococcus aureus [8]) of 8 µg/mL (≈ 24.4 µM).

CC(=O)NNC[C@H]1CN(c2ccc(OCCOCc3ccccc3)c(F)c2)C(=O)O1 was tested, and the MIC (Enterococcus faecalis [1]) was 32 µg/mL (≈ 76.7 µM), the MIC (Enterococcus faecalis [2]) was 32 µg/mL (≈ 76.7 µM) and the MIC (Staphylococcus aureus [4]) was 8 µg/mL (≈ 19.2 µM). For the same molecule, the MIC (Staphylococcus aureus [6]) was 16 µg/mL (≈ 38.3 µM) and the MIC (Enterococcus faecium [7]) was 32 µg/mL (≈ 76.7 µM).

In the case of CC(=O)NC[C@H]1CN(c2ccc(N3CCOCC3)c(F)c2)C(=O)O1 [LINEZOLID], the MIC (Enterococcus faecium [3]) is reported as 2 µg/mL (≈ 5.93 µM) and the MIC (Staphylococcus aureus [4]) is reported as 1 µg/mL (≈ 2.96 µM).

Molecule C/C(S)=N/NC[C@H]1CN(c2ccc(OCCN3CCSCC3)c(F)c2)C(=O)O1 has an MIC (Enterococcus faecalis [1]) of 1 µg/mL (≈ 2.33 µM), an MIC (Enterococcus faecalis [2]) of 2 µg/mL (≈ 4.67 µM) and an MIC (Enterococcus faecium [3]) of 2 µg/mL (≈ 4.67 µM). The MIC (Staphylococcus aureus [4]) was 0.5 µg/mL (≈ 1.17 µM), the MIC (Staphylococcus aureus [5]) was 2 µg/mL (≈ 4.67 µM) and the MIC (Staphylococcus aureus [6]) was 2 µg/mL (≈ 4.67 µM).

Molecule CC(=O)NNC[C@H]1CN(c2ccc(OCCN3CCCCC3)c(F)c2)C(=O)O1 has an MIC (Enterococcus faecalis [1]) of 64 µg/mL (≈ 162 µM), an MIC (Enterococcus faecalis [2]) of 64 µg/mL (≈ 162 µM) and an MIC (Enterococcus faecium [3]) of 64 µg/mL (≈ 162 µM). It also gave an MIC (Staphylococcus aureus [4]) of 32 µg/mL (≈ 81.1 µM), an MIC (Staphylococcus aureus [5]) of 64 µg/mL (≈ 162 µM) and an MIC (Staphylococcus aureus [6]) of 64 µg/mL (≈ 162 µM).

CC(=O)NNC[C@H]1CN(c2ccc(OCCN3CCOCC3)cc2)C(=O)O1 gave an MIC (Enterococcus faecalis [1]) greater than 32 µg/mL, an MIC (Enterococcus faecalis [2]) greater than 32 µg/mL and an MIC (Enterococcus faecium [3]) greater than 32 µg/mL. For the same molecule, the MIC (Staphylococcus aureus [4]) was greater than 32 µg/mL and the MIC (Staphylococcus aureus [6]) was greater than 32 µg/mL.

Molecule CC(=O)NNC[C@H]1CN(c2ccc(OCCN3CCOCC3)c(F)c2)C(=O)O1 has an MIC (Enterococcus faecalis [1]) of 16 µg/mL (≈ 40.4 µM), an MIC (Enterococcus faecalis [2]) of 16 µg/mL (≈ 40.4 µM) and an MIC (Enterococcus faecium [3]) of 4 µg/mL (≈ 10.1 µM). The MIC (Staphylococcus aureus [4]) was 4 µg/mL (≈ 10.1 µM), the MIC (Staphylococcus aureus [5]) was 16 µg/mL (≈ 40.4 µM) and the MIC (Staphylococcus aureus [6]) was 16 µg/mL (≈ 40.4 µM).

C/C(S)=N/NC[C@H]1CN(c2ccc(OCCN3CCOCC3)c(F)c2)C(=O)O1 showed an MIC (Enterococcus faecalis [1]) of 2 µg/mL (≈ 4.85 µM), an MIC (Enterococcus faecalis [2]) of 2 µg/mL (≈ 4.85 µM) and an MIC (Enterococcus faecium [3]) of 2 µg/mL (≈ 4.85 µM). The MIC (Staphylococcus aureus [4]) was 1 µg/mL (≈ 2.42 µM), the MIC (Staphylococcus aureus [5]) was 2 µg/mL (≈ 4.85 µM) and the MIC (Staphylococcus aureus [9]) was 2 µg/mL (≈ 4.85 µM).

Molecule CN[C@H](CC(C)C)C(=O)N[C@H]1C(=O)N[C@@H](CC(N)=O)C(=O)N[C@H]2C(=O)N[C@H]3C(=O)N[C@H](C(=O)N[C@H](C(=O)O)c4cc(O)cc(O)c4-c4cc3ccc4O)[C@H](O)c3ccc(c(Cl)c3)Oc3cc2cc(c3O[C@@H]2O[C@H](CO)[C@@H](O)[C@H](O)[C@H]2O[C@H]2C[C@](C)(N)[C@H](O)[C@H](C)O2)Oc2ccc(cc2Cl)[C@H]1O [VANCOMYCIN] has an MIC (Enterococcus faecalis [1]) of 2 µg/mL (≈ 1.38 µM), an MIC (Enterococcus faecalis [2]) greater than 32 µg/mL and an MIC (Enterococcus faecium [3]) greater than 32 µg/mL.

Work on C/C(S)=N/NC[C@H]1CN(c2ccc(OCCN3CCCCC3)c(F)c2)C(=O)O1 yielded an MIC (Enterococcus faecalis [1]) of 8 µg/mL (≈ 19.5 µM), an MIC (Enterococcus faecalis [2]) of 4 µg/mL (≈ 9.74 µM) and an MIC (Enterococcus faecium [3]) of 4 µg/mL (≈ 9.74 µM). It also gave an MIC (Staphylococcus aureus [4]) of 2 µg/mL (≈ 4.87 µM), an MIC (Staphylococcus aureus [5]) of 8 µg/mL (≈ 19.5 µM) and an MIC (Staphylococcus aureus [6]) of 8 µg/mL (≈ 19.5 µM).

CO/C(S)=N/NC[C@H]1CN(c2ccc(OCCN3CCSCC3)c(F)c2)C(=O)O1 gave an MIC (Enterococcus faecalis [1]) of 1 µg/mL (≈ 2.25 µM), an MIC (Enterococcus faecalis [2]) of 2 µg/mL (≈ 4.5 µM) and an MIC (Enterococcus faecium [3]) of 2 µg/mL (≈ 4.5 µM). The MIC (Staphylococcus aureus [5]) was 4 µg/mL (≈ 9 µM), the MIC (Staphylococcus aureus [6]) was 4 µg/mL (≈ 9 µM) and the MIC (Staphylococcus aureus [8]) was 1 µg/mL (≈ 2.25 µM).
